Experimental data taken from patent US6596709B1, “6-sulphanoyl-3-quinolylphosphonic acid compounds” (Les Laboratoires Servier, priority 2000, dated 2003).
Where two headings read alike, the source gives them in different places.

Tests used:
[1] = Journal of Cerebral Blood Flow and Metabolism, 1994, 14, 251-261; cited from earlier work
[2] = Nephrotoxicity of prior-art compounds of EP 0 640 612 found by the Applicant; type: in vivo; settings: no method given

NS(=O)(=O)c1cccc2c3c(cc([N+](=O)[O-])c12)=NC(=O)C(=O)N=3 [NBQX, 6-nitro-7-sulphamoyl-benzo[f]quinoxaline-2,3-dione]
Nephrotoxicity [1]: nephrotoxicity

O=c1[nH]c2cc(Cl)c(Cl)cc2cc1P(=O)(O)O [(6,7-dichloro-2-oxo-1,2-dihydro-3-quinolyl)phosphonic acid]
Nephrotoxicity [2]: serious problems of nephrotoxicity
